Test results taken from publication PMC7529893, “Structural basis for substrate recognition and chemical inhibition of oncogenic MAGE ubiquitin ligases” (Nature Communications, 2020).

Target: T1, MAGE-A11:PCF11 interaction (GST-MAGE-A11 and FAM-PCF11_4) (Homo sapiens, UniProt P43364)
T1 construct: GST-MAGE-A11 MHD (human MAGE-A11 MHD amino acid 218-429); made in house; host or cells: E. coli BL21(DE3)
T1 sequence (P43364 218-429): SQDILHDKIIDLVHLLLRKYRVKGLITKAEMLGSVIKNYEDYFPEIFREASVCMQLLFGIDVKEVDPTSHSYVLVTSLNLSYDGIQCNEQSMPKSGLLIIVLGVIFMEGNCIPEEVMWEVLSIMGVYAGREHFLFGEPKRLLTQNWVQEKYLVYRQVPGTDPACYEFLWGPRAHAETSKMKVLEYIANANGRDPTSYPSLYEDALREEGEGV
Test: TR-FRET primary / single point screen at 15 µM
Type: binding
Details: single point TR-FRET screening of 797 quinoline compounds against MAGE-A11:PCF11
How it was run: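 Single-point screen at 15 µM final compound in 50 mM Tris pH 7.5, 20 mM MgCl2, 0.1 mg/ml BSA, 1 mM DTT, with 200 nM FAM-PCF11_4, 5 nM Tb-anti-GST and 5 nM GST-MAGE-A11. After 90 min at room temperature, the 520/490 nm TR-FRET ratio (340 nm excitation) gave %Inhibition against no-MAGE-A11 and DMSO controls.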

SMILES | percent inhibition (TR-FRET)
Cn1cc(CN(CCCCNc2ccnc3cc(Cl)ccc23)Cc2ccccc2)c2ccccc21 [SJ000520440] | -14.3502
CCC(CC)CNCCCNc1c2ccc(Cl)cc2nc2ccc(OC)cc12 [SJ000361092] | -427.368
CCOc1ccc2ncc(S(=O)(=O)c3ccccc3)c(N3CCN(c4ccccc4)CC3)c2c1 [SJ000083975] | -12.0602
CCOc1ccc2ncc(C(=O)c3ccc(C)cc3)c(N3CCN(C)CC3)c2c1 [SJ000247254] | -10.6078
COc1ccc(CN2CCC(Nc3ccnc4cc(Cl)ccc34)CC2)cc1 [SJ000523090] | 23.7178
Clc1ccc2c(NC3CCN(CCCc4ccccc4)CC3)ccnc2c1 [SJ000523104] | 20.6486
COc1ccc2nc3cc(Cl)ccc3c(NCCCNCCC(C)(C)C)c2c1 [SJ000520994] | -456.31
CCCN(CCCNc1c2ccc(Cl)cc2nc2ccc(OC)cc12)Cc1cn(C(C)=O)c2ccccc12 [SJ000522736] | -192.351
COc1ccc2nc3cc(Cl)ccc3c(NCCCNCc3cccc(C#N)c3)c2c1 [SJ000523037] | -333.152
CN1CCN(c2c(S(=O)(=O)c3ccc(Cl)cc3)cnc3ccccc23)CC1 [SJ000247306] | -10.1441
CCCN(CCCNc1c2ccc(Cl)cc2nc2ccc(OC)cc12)Cc1ccc(CC)cc1 [SJ000522972] | -105.076
CCC(C)CN1CCC(Nc2ccnc3cc(Cl)ccc23)CC1 (stereo not drawn) [SJ000523105] | 11.185
CCOC(=O)c1cnc2c(ccc3ccccc32)c1NCCN(C)C [SJ000019487] | 6.418
CCc1ccc2ncc(C(=O)c3ccccc3)c(N3CCN(CC)CC3)c2c1 [SJ000247281] | -2.261
CCc1ccc(S(=O)(=O)c2cnc3ccccc3c2N2CCN(c3ccc(OC)cc3)CC2)cc1 [SJ000117074] | -11.204
COc1ccc2nc3cc(Cl)ccc3c(NCCCNCc3c(F)cccc3C(F)(F)F)c2c1 [SJ000520999] | -116.734

SMILES | percent inhibition (TR-FRET)
COc1ccc2ncc(S(=O)(=O)c3ccc(C)c(C)c3)c(N3CCN(C)CC3)c2c1 [SJ000247333] | -8.554
CCOc1ccc2ncc(S(=O)(=O)c3ccc(C)cc3)c(N3CCN(c4ccc(F)cc4)CC3)c2c1 [SJ000117060] | -11.0715
CCCN(CCCNc1c2ccc(Cl)cc2nc2ccc(OC)cc12)Cc1cn(C)c2ccccc12 [SJ000522964] | -162.244
CN1CCN(c2c(S(=O)(=O)c3ccccc3)cnc3ccc(Cl)cc23)CC1 [SJ000083950] | -5.3743
CCc1ccc2ncc(S(=O)(=O)c3ccc(OC)cc3)c(N3CCN(c4ccc(F)cc4)CC3)c2c1 [SJ000117064] | -9.084
COc1ccc2nc3cc(Cl)ccc3c(NCCCNCc3ccccc3C(F)(F)F)c2c1 [SJ000361095] | -169.468
COc1ccc(O)c(CN2CCC(Nc3ccnc4cc(Cl)ccc34)CC2)c1 [SJ000357527] | 7.779
CCOC(=O)c1cnc2c(C)cc(C)cc2c1NCCN(C)C [SJ000037396] | 4.92
COc1ccc2nc3cc(Cl)ccc3c(NCCCNCc3ccc4ccccc4c3)c2c1 [SJ000523038] | -109.452
COc1ccc2ncc(S(=O)(=O)c3ccccc3)c(N3CCN(C)CC3)c2c1 [SJ000083947] | -2.0938
Cc1ccc(S(=O)(=O)c2cnc3ccc(F)cc3c2N2CCN(c3ccc(F)cc3)CC2)cc1 [SJ000117061] | -70.4952
COc1ccc(N2CCN(c3c(S(=O)(=O)c4ccccc4)cnc4ccc(OC)cc34)CC2)cc1 [SJ000117071] | -32.6681
Cc1ccc2ncc(S(=O)(=O)c3ccccc3)c(N3CCN(c4ccccc4)CC3)c2c1 [SJ000083973] | -29.7042
COc1ccc2ncc(S(=O)(=O)c3ccccc3)c(N3CCN(c4ccccc4)CC3)c2c1 [SJ000083974] | -132.977
COc1cccc(CN2CCC(Nc3ccnc4cc(Cl)ccc34)CC2)c1O [SJ000357525] | 9.995

Continued, values first:

percent inhibition (TR-FRET) | SMILES
4.099 | O=C(O)c1ccccc1CN(CCCCNc1ccnc2cc(Cl)ccc12)Cc1ccccc1 [SJ000361203]
-153.702 | CCCCCCN(CCC)CCCNc1c2ccc(Cl)cc2nc2ccc(OC)cc12 [SJ000520963]
23.4378 | Cc1ccsc1CN(CCCCNc1ccnc2cc(Cl)ccc12)Cc1ccccc1 [SJ000361191]
13.1455 | COc1ccc(CN(CCCCNc2ccnc3cc(Cl)ccc23)Cc2ccccc2)cc1F [SJ000520438]
19.4021 | COc1ccccc1CN(CCCCNc1ccnc2cc(Cl)ccc12)Cc1ccccc1 [SJ000522726]

Same assay, conditions: single point TR-FRET screening of quinoline compounds against MAGE-A11:PCF11; 15 µM

SMILES | percent inhibition (TR-FRET)
O=C(O)c1ccccc1CN(CCCNc1ccnc2cc(Cl)ccc12)Cc1ccccc1 [SJ000361180] | 9.598
Clc1ccc2c(NCCCN(Cc3ccccc3)Cc3ccc4c(c3)OCO4)ccnc2c1 [SJ000522719] | 9.001
CCCN(CCCNc1c2ccc(Cl)cc2nc2ccc(OC)cc12)Cc1nc2ccccc2s1 [SJ000522969] | -68.773
c1ccc(Oc2ccc3c(NCCCNCc4ccco4)ccnc3c2)cc1 [SJ000311206] | 14.5885
CCCCCCNCCCNc1ccnc2cc(C(F)(F)F)ccc12 [SJ000361124] | 31.6112
CCCN(CCCNc1c2ccc(Cl)cc2nc2ccc(OC)cc12)Cc1cc(F)ccc1OC [SJ000520931] | 1.847
FC(F)(F)c1cc(-c2ccc3c(NCCCNCc4ccco4)ccnc3c2)cc(C(F)(F)F)c1 [SJ000311270] | 59.7059
Fc1ccc(-c2ccc3c(NCCCNCc4ccco4)ccnc3c2)cc1 [SJ000311238] | 27.4287
COc1ccc(-c2ccc3c(NCCCNCc4ccco4)ccnc3c2)cc1 [SJ000311294] | 7.824
CCC(CC)c1ccc2c(NCCCNCc3ccco3)ccnc2c1 [SJ000311266] | 24.558

Next, values leading:

percent inhibition (TR-FRET) | SMILES
-0.5383 | COc1ccc(CN(CCCNc2ccnc3cc(Cl)ccc23)Cc2ccccc2)cc1OC [SJ000522742]
1.317 | CCCCCCN(CCC)CCCNc1ccnc2cc(Cl)ccc12 [SJ000523048]
30.6641 | CCCN(CCCNc1ccnc2cc(C(F)(F)F)ccc12)CC(CC)CC [SJ000361269]
10.3448 | CCCN(CCCNc1ccnc2cc(Cl)ccc12)Cc1ccc[nH]1 [SJ000357445]
14.3161 | CCCN(CCCNc1ccnc2cc(C(F)(F)F)ccc12)Cc1cccc2ccccc12 [SJ000523074]
-9.05 | COc1cccc(CN(CCCNc2ccnc3cc(Cl)ccc23)Cc2ccccc2)c1 [SJ000361188]
13.0224 | CCCN(CCCNc1ccnc2cc(C(F)(F)F)ccc12)Cc1cccc(C(F)(F)F)c1 [SJ000520471]
28.5489 | CCCN(CCCNc1ccnc2cc(C(F)(F)F)ccc12)Cc1ccoc1 [SJ000361267]
13.1749 | COc1cccc(CN(CCCNc2ccnc3cc(Cl)ccc23)Cc2ccccc2)c1O [SJ000357465]
14.997 | CCCN(CCCNc1ccnc2cc(C(F)(F)F)ccc12)Cc1cc(F)cc(F)c1O [SJ000521012]
13.8395 | CCCN(CCCNc1ccnc2cc(C(F)(F)F)ccc12)Cc1ccc(F)c(F)c1 [SJ000361272]
15.746 | CCCN(CCCNc1ccnc2cc(C(F)(F)F)ccc12)Cc1cc(F)ccc1OC [SJ000520475]
20.3571 | Fc1cccc(CN(CCCNc2ccnc3cc(Cl)ccc23)Cc2ccccc2)c1 [SJ000361176]
12.1149 | CCCN(CCCNc1ccnc2cc(Cl)ccc12)CCC(C)(C)C [SJ000357570]
9.6638 | CCCN(CCCNc1ccnc2cc(Cl)ccc12)CC1CCOC1 (stereo not drawn) [SJ000523016]
9.7847 | CCCNCCCNc1ccnc2cc(Cl)ccc12 [SJ000361119]
9.822 | CCC(C)CNCCCNc1ccnc2cc(Cl)ccc12 (stereo not drawn) [SJ000361104]
32.8503 | CCCN(CCCNc1ccnc2cc(Cl)ccc12)Cc1ccc2ccccc2c1 [SJ000523040]
23.5778 | CCCCN(CCC)CCCNc1ccnc2cc(C(F)(F)F)ccc12 [SJ000520477]
22.8956 | CCCN(CCCNc1ccnc2cc(C(F)(F)F)ccc12)Cc1ccc(OC)cc1 [SJ000361273]
28.5489 | CCCN(CCCNc1ccnc2cc(Cl)ccc12)Cc1cccc(C)c1 [SJ000523041]
7.014 | Clc1ccc2c(NCCCNCc3cncc(Br)c3)ccnc2c1 [SJ000521037]
21.9858 | CCCN(CCCNc1ccnc2cc(Cl)ccc12)Cc1ccccc1F [SJ000522757]
1.3128 | CCCN(CCCNc1ccnc2cc(Cl)ccc12)Cc1ccccn1 [SJ000522743]
8.665 | CCCN(CCCNc1ccnc2cc(C(F)(F)F)ccc12)Cc1nccs1 [SJ000575189]
10.2048 | Cc1ccc(CNCCCNc2ccnc3cc(Cl)ccc23)o1 [SJ000311326]
